Tests used:
KK-Ay mice = assay: anti-diabetic efficacy in KK-Ay mice (change in serum glucose levels); type: in vivo; details: 0.018% (30 mg/kg) dietary admixture in powdered diet, change in serum glucose levels compared to untreated control animals
Description: Selected compounds were administered to KK-Ay mice as a 0.018% (30 mg/kg) dietary admixture in powdered diet and evaluated for anti-diabetic efficacy as described (T. Shibata, K. Matsui, K. Nagao, H. Shinkai, F. Yonemori and K. Wakitani 1999; European Journal of Pharmacology 364:211-219). The change in serum glucose levels compared to untreated control animals is exemplified in Table 39.

PPARγ = molecular target: T1, PPARγ (UniProt P37231); assay: PPARγ ligand binding assay utilizing [3H]-BRL 49653 as the radioligand; details: concentration required to reduce specific binding by 50%
T1 construct: fused on or other part: GST tag fused to PPARgamma, used for capture on glutathione beads
T1 sequence (P37231 1-505): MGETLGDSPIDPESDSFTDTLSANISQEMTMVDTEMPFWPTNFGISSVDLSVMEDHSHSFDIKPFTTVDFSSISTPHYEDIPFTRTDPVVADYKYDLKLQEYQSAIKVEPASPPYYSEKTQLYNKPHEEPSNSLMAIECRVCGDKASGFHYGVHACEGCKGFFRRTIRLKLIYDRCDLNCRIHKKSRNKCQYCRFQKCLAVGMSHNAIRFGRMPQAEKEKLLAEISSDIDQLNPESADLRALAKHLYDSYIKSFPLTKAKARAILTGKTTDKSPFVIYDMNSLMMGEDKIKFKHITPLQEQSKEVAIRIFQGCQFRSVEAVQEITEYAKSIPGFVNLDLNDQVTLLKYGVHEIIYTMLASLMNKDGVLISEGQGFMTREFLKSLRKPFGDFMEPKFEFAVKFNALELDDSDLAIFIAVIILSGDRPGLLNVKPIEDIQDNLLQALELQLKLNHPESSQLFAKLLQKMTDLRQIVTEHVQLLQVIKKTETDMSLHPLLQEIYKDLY
Excerpt: The compounds for use according to the present invention can be evaluated for modulation of the PPARγ receptor using assays such as those described in Jiang, et al., Nature 391:82-86 (1998), Ricote, et al., Nature 391:79-82 (1998) and Lehmann, et al., J. Biol. Chem. 270(12): 12953-12956 (1995). Alternatively, the compounds for use according to the invention can be evaluated for their ability to displace radiolabeled BRL 49653 from a PPARγ-GST fusion protein as follows:
PPAR-γ-GST fusion protein (prepared according to standard procedures), [^3H]-BRL 49653 having 50 Ci/mmol specific activity, Polyfiltronics Unifilter 350 filtration plate and glutathione-Sepharose® beads (from Pharmacia: washed twice with 10× binding buffer in which BSA and DTI can be left out).
Binding buffer (10 mM Tris-HCl, pH 8.0, 50 mM KCl, 10 mM DTT, 0.02% BSA and 0.01% NP-40) is added in 80 microliter amounts to the wells of the filtration plate. The test compound is then added in 10 microliters of DMSO. The PPARy-GST fusion protein and radiolabeled BRL compound are premixed in binding buffer containing 10 mM DTT and added in 10 microliter amounts to the wells of the plate to provide final concentrations of 1 μg/well of PPAR-γ-GST fusion protein and 10 nM [^3H]-BRL 49653 compound. The plate is incubated for 15 minutes. Glutathione-agarose bead is added in 50 μL of binding buffer, and the plate is vigorously shaken for one hour. The plate is washed four times with 200 μL/well of binding buffer (without BSA and DTT). The bottom of the plate is sealed and 200 μL/well of scintillation cocktail is added. The top of the plate is then sealed and the radioactivity is determined. Formulation and Administration of the Compounds (Compositions) for Use According to the Invention

Structure (SMILES) | KKAy Glucose (KK-Ay mice) | IC50 (PPARγ) [µM] | melting point [°C]
O=S(=O)(Nc1cc(Cl)c(Oc2nc3ccc(Cl)cc3s2)c(Cl)c1)c1ccc(C(F)(F)F)cc1Cl [Example 365, 2-Chloro-N-[3,5-dichloro-4-(6-chloro-benzothiazol-2-yloxy)-phenyl]-4-trifluoromethyl-benzenesulfonamide] | ++ ((++) glucose lowering >20%) | < 10 | 82 to 84
O=S(=O)(Nc1cc(Cl)c(Sc2cnc3ccccc3c2)c(Cl)c1)c1ccc(C(F)(F)F)cc1Cl [Example 87.3] | ++ ((++) glucose lowering >20%) | < 1 | 225.1

From patent US20050250820A1, “Therapeutic modulation of PPARgamma activity” (Amgen Inc., priority 2004, published 2005)
